Bounds are passed on as bounds.

Test [1] addresses T1, human glucocorticoid receptor (GR) (Homo sapiens, UniProt P04150).
T1 construct: expressed in transfected cells; host or cells: HEK293, transient transfection, CMV promoter plasmid
T1 sequence (P04150 1-777): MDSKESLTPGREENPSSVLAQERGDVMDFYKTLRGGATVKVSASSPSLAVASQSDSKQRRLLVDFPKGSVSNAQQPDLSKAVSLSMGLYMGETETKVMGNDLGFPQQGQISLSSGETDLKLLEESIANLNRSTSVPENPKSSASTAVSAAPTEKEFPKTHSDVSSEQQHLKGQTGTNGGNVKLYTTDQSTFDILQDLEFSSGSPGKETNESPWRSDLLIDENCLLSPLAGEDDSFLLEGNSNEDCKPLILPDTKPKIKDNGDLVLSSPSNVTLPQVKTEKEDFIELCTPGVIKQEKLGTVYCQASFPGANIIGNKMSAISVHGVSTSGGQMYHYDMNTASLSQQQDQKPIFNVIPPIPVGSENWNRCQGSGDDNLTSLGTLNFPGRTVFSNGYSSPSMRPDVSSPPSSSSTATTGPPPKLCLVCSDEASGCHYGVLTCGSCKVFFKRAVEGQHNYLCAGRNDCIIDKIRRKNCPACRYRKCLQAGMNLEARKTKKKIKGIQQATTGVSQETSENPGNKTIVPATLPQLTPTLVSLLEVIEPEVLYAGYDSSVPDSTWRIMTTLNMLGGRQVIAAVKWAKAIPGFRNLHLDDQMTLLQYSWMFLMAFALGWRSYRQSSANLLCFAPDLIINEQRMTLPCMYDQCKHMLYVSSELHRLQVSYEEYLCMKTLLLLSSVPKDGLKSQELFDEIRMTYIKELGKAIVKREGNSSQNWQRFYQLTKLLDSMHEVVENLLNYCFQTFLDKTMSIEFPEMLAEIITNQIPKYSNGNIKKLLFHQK
As to the kind of experiment: Nuclear hormone receptor functional modulation assay (GRE-luciferase reporter, HEK293), GR. Type of test: cell-based. Particulars: agonist mode, mean of n=4 or 5. From the text:
The solvents, reagents, and ligands employed in the functional assay are readily available from commercial sources, or can be prepared by one of ordinary skill in the art.
Human embryonic kidney HEK293 cells are transfected with steroid hormone receptor and reporter gene plasmids using Fugene™ transfection reagent. Briefly, the reporter plasmid containing two copies of probasin ARE and TK(thymidine kinase) promoter upstream of the luciferase reporter cDNA, is transfected into HEK293 cells with a plasmid constitutively expressing human androgen receptor (AR) using viral CMV(cytomegalovirus) promoter. The reporter plasmid containing two copies of GRE and TK promoter upstream of the luciferase reporter cDNA is transfected with a plasmid constitutively expressing either human glucocorticoid receptor (GR), human mineralocorticoid receptor (MR), or human progesterone receptor (PR) using viral CMV promoter. […] After 24-hours incubation with test compounds, cells are lysed and luciferase activity is determined using standard techniques.
Data are fitted to a four parameter-fit logistic curve fit to determine EC50 values. […] IC50 values may be determined similarly using antagonist mode assay data. Percent inhibitions may also be determined relative to the response in the presence of agonist alone, as described above.
(In a reporter assay the amount or activity of a reporter protein is the signal.)

The target in test [2] is T2, human GR (glucocorticoid receptor) (Homo sapiens, UniProt P04150).
T2 construct: expressed in transfected cells; host or cells: HEK293 (293-GR lysate)
T2 sequence (P04150 1-777): T1 sequence (P04150 1-777)
The test can be described thus: Nuclear hormone receptor competition binding assay, GR. As to the method:
Cell lysates from human embryonic kidney HEK293 cells overexpressing human GR (glucocorticoid receptor), AR (androgen receptor), MR (mineralocorticoid receptor), or PR (progesterone receptor) are used for receptor-ligand competition binding assays to determine Ki values.
Briefly, steroid receptor competition binding assays are run in a buffer containing 20 mM Hepes buffer (pH=7.6), 0.2 mM EDTA, 75 mM NaCl, 1.5 mM MgCl2, 20% glycerol, 20 mM sodium molybdate, 0.2 mM DTT (dithiothreitol), 20 μg/ml aprotinin and 20 μg/ml leupeptin. Typically, steroid receptor binding assays include radio-labeled ligands, such as 0.3 nM [^3H]-dexamethasone for GR binding, 0.36 nM [^3H]-methyltrienolone for AR binding, 0.25 nM [^3H]-aldosterone for MR binding, and 0.29 nM [^3H]-methyltrienolone for PR binding, and either 20 μg 293-GR lysate, 22 μg 293-AR lysate, 20 μg 293-MR lysate or 40 μg 293-PR lysate per well. Assays are typically run in 96-well format. Competing test compounds are added at various concentrations ranging from about 0.01 nM to 10 μM. Non-specific binding is determined in the presence of 500 nM dexamethasone for GR binding, 500 nM aldosterone for MR binding, or 500 nM methyltrienolone for AR and PR binding. […] After an incubation of 2 hours, plates are read in a Wallac Microbeta counter. […]

As a reminder, the EC50 is the concentration giving half of the maximal effect. A word on the Ki: it is a dissociation constant, usually derived from enzyme kinetics or from competition with a known ligand. Low values mean tighter binding, high ones weaker binding. Regarding `CC/C(=C1\c2ccc(F)cc2OCc2ncccc21)c1cccc(NS(C)(=O)=O)c1` [Compound (I), (E)-N-{3-[1-(8-Fluoro-11H-10-oxa-1-aza-dibenzo[a,d]cyclohepten-5-ylidene)-propyl]-phenyl}-methanesulfonamide], the “efficacy in activating transcription, GR” value in test [1] (relative to 100 nM dexamethasone) is “about 44%”. Besides, the EC50 in test [1] (read-out: EC50 in activating transcription, GR) is around 1.8 nM. This compound also yielded a Ki in test [2] (HEK293 lysate overexpressing human GR, [3H]-dexamethasone, mean of n=7) of around 0.2 nM. Also, the “greater affinity for GR relative to each of human MR, AR, and PR” value in test [2] (ratio of binding affinities) is listed as at least 15 fold.

Source of the values: patent US8101761B2, “(E)-N-{3-[1-(8-fluoro-11H-10-OXA-1-AZA-dibenzo [A,D] cyclohepten-5ylidene)-propyl]-phenyl}-methanesulfonamide as glucocorticoid receptor modulator for the treatment of rheumatoid arthritis” (Eli Lilly and Company, priority 2008, dated 2012).
